Values joined by “and” are separate entries in the source; they are usually repeats but may differ in a detail not shown here. Equal values may be shown once. Read-outs that look alike come from different tables or passages of the source.
Legend:
[1] = test system: RRMS patients; settings: cited from earlier work
[2] = test system: RRMS patients; test: Combined GALA and FORTE cohorts: patient responses by preliminary predictive model (11 SNPs and 2 clinical co-variates, threshold 0.71); type: in vivo, human; set-up: ARR reduced (improved) by: concentration or dose not given beside the values
Protocol: A predictive model was generated based on the 11 SNPs shown in tables 42, 43, 44a and 44b and the two Clinical co-variants shown in table 33.
Receiver Operating Characteristic (ROC) analysis was performed using the actual value (case or control) and predicted value for each sample from the multi-marker regression model (FIG. 1). For these preliminary analyses, two risk groups were defined using the predicted values from the multi-marker regression model. The predictive threshold value was set at 0.71 (termed “model 3”) based on a variety of factors after consultation with the Teva team and Teva MS clinical experts.
While 40% of patients were classified as “predicted non-responders” with an overall response rate of 34% (FIG. 5).

[3] = test system: RRMS subjects; settings: cited from earlier work
[4] = test system: RRMS patients; test: GALA phase 3 trial cohort: response to glatiramer acetate, ARR by predicted responder status; type: in vivo, human
Protocol: As used herein, “GALA” is a phase 3 clinical trial entitled “A Study in Subjects With Relapsing-Remitting Multiple Sclerosis (RRMS) to Assess the Efficacy, Safety and Tolerability of Glatiramer Acetate (GA) Injection 40 mg Administered Three Times a Week Compared to Placebo (GALA).” The GALA trial has the ClinicalTrials.gov Identifier NCT01067521, and additional information about the trial can be found at clinicaltrials.gov/ct2/show/NCT01067521.
(§1) Response definitions were received from patients from two large glatiramer acetate clinical trial cohorts (GALA, FORTE) and patients were categorized as responder, non-responder, extreme-responder, or extreme non-responder according to the criteria set forth in Table 1.
(§2) When analysis was conducted for all genotyped patients of the Gala and FORTE cohorts, based on the predictive model (11 SNPs and 2 clinical variables), 34% of GALA, and 42% of FORTE-patients were classified as “predicted responders”.
(§3) Analysis was conducted for all genotyped patients of the Gala and FORTE cohorts, based on the 11 SNPs in the predictive model, but without including the clinical variables, and using a threshold at ˜30% of the population classified as “predicted responders” (FIG. 9).
(§4) When analysis was conducted for all genotyped patients of the Gala and FORTE cohorts, based on the […] and 2 clinical variables, 34% of GALA, and 42% of FORTE-patients were classified as “predicted responders”.

[5] = test system: RRMS patients; test: FORTE phase 3 trial cohort: response to glatiramer acetate, ARR by predicted responder status; type: in vivo, human; settings: for ARR reduced (improved) by: predicted responders vs predicted non-responders
Excerpt: As used herein, “FORTE” is a phase 3 clinical trial entitled “Clinical Trial Comparing Treatment of Relapsing-Remitting Multiple Sclerosis (RR-MS) With Two Doses of Glatiramer Acetate (GA).” The FORTE trial has the ClinicalTrials.gov Identifier NCT00337779 and additional information, including study results can be found at clinicaltrials.gov/ct2/show/NCT00337779.
as §1, §2, §3, §4

[6] = predicted responders compared to predicted non-responders
[7] = predicted responders compared to the overall cohort
[8] = predicted responders compared to the overall patient cohort
[9] = predicted responders, ± standard error of the mean
[10] = change in ARR <-1 and new T2 lesions = 0 and relapse free
[11] = change in ARR from previous 2 years <-1
[12] = change in ARR from previous 2 years ≧0
[13] = change in ARR ≧0 and new T2 lesions ≧1
[14] = predicted non-responders, 10 SNPs and 2 clinical variables
[15] = predicted non-responders, 11 SNPs without clinical variables
[16] = predicted non-responders, model of 11 SNPs and 2 clinical variables
[17] = predicted responders, 10 SNPs and 2 clinical variables, ± SEM
[18] = predicted responders, 11 SNPs without clinical variables, threshold ~30% of population, ± SEM
[19] = predicted responders, model of 11 SNPs and 2 clinical variables, ± SEM

In the case of glatiramer acetate, the response rate ([1]; DRB1*1501 carriers) is given as 81.8%, the response rate ([1]; non-carriers of DRB1*1501) is given as 39.4% and the response rate ([1]; whole study population (N=83 RRMS)) is given as 50%. The EDSS progression ([2]; overall cohort) was 0.057, the response rate ([2]; overall cohort) was 68% and the “annualized relapse rate (ARR)” value ([2]; overall patient cohort) was 0.53±0.04. The “number of confirmed relapses (nrelapse)” value ([2]; overall patient cohort) was 0.46±0.03, the EDSS progression ([2]; predicted non-responders) was 0.10±0.02 and the “annualized relapse rate (ARR)” value ([2]; predicted non-responders) was 1.04±0.08. For the same substance, the “number of T1 enhancing lesions at month 12” value ([2]; predicted non-responders) was 1.70±0.38, the “number of confirmed relapses (nrelapse)” value ([2]; predicted non-responders) was 0.88±0.06 and the response rate ([2]; predicted non-responders, Gala and Forte cohorts) was 34%. The EDSS progression ([2]; predicted responders) was 0.03±0.01, the “number of T1 enhancing lesions at month 12” value ([2]; predicted responders) was 0.91±0.18 and the “ARR reduced (improved) by” value [2, 6] was 80%. For the same substance, the improved response rate [2, 6] was 2.7 fold, the “number of T1 enhancing lesions at month 12 reduced (improved) by” value [2, 6] was 47% and the “number of confirmed relapses reduced (improved) by” value [2, 6] was 78%. For the same substance, the “improvement in response rate” value [2, 7] was 34%, the “reduced EDSS progression” value [2, 7] was 49% and the “ARR reduced (improved) by” value [2, 8] was 60%. For the same substance, the “number of confirmed relapses reduced (improved) by” value [2, 8] was 58%, the “EDSS progression delayed (improved) by” value ([2]; predicted responders versus predicted non-responders) was 72% and the response rate ([2]; predicted responders, Gala and Forte cohorts) was 91.1% and 91%. The “annualized relapse rate (ARR)” value [2, 9] was 0.21±0.03, the “number of confirmed relapses (nrelapse)” value [2, 9] was 0.19±0.03 and the “relapse rate reduced by” value ([3]; GA 20 mg vs placebo, largest controlled study) was 32%. The tolerability ([3]; daily standard dose of 20 mg) was “generally well tolerated”, the “median cumulative number of Gd-enhancing lesions” value ([3]; over 9 months of treatment, 20 mg group) was 11 lesions and the relapse rate ([3]; under GA 20 mg, largest controlled study) was 1.34. The “Extreme Responders, % of cohort” value [4, 10] was “(8.5%)”, the “Extreme Responders, number of samples” value [4, 10] was 66 and the “Responders, % of cohort” value [4, 11] was “(26%)”. For the same substance, the “Responders, number of samples” value [4, 11] was 200, the “Non-Responders, % of cohort” value [4, 12] was “(16%)” and the “Non-Responders, number of samples” value [4, 12] was 123. For the same substance, the “Extreme Non-Responders, % of cohort” value [4, 13] was “(10%)”, the “Extreme Non-Responders, number of samples” value [4, 13] was 79 and the “annualized relapse rate (ARR)” value [4, 14] was 0.374±0.038. The “annualized relapse rate (ARR)” value [4, 15] was 0.382±0.037, the “annualized relapse rate (ARR)” value [4, 16] was 0.374±0.038 and the “ARR reduced (improved) by” value ([4]; predicted responders vs placebo, 10 SNPs and 2 clinical variables) was 64%. For the same substance, the “ARR reduced (improved) by” value ([4]; predicted responders vs placebo, 11 SNPs and 2 clinical variables) was 64%, the “ARR reduced (improved) by” value ([4]; predicted responders vs placebo, 11 SNPs without clinical variables) was 71% and the “ARR reduced (improved) by” value ([4]; predicted responders vs predicted non-responders, 10 SNPs and 2 clinical variables) was 51%. For the same substance, the “ARR reduced (improved) by” value ([4]; predicted responders vs predicted non-responders, 11 SNPs and 2 clinical variables) was 51%, the “ARR reduced (improved) by” value ([4]; predicted responders vs predicted non-responders, 11 SNPs without clinical variables) was 62% and the “annualized relapse rate (ARR)” value [4, 17] was 0.185±0.032. The “annualized relapse rate (ARR)” value [4, 18] was 0.131±0.026, the “annualized relapse rate (ARR)” value [4, 19] was 0.185±0.032 and the “Extreme Responders, % of cohort” value [5, 10] was “(16%)”. For the same substance, the “Extreme Responders, number of samples” value [5, 10] was 95, the “Responders, % of cohort” value [5, 11] was “(36%)” and the “Responders, number of samples” value [5, 11] was 221. For the same substance, the “Non-Responders, % of cohort” value [5, 12] was “(11%)”, the “Non-Responders, number of samples” value [5, 12] was 68 and the “Extreme Non-Responders, % of cohort” value [5, 13] was “(6%)”. The “Extreme Non-Responders, number of samples” value [5, 13] was 38, the “annualized relapse rate (ARR)” value [5, 14] was 0.368±0.039 and the “annualized relapse rate (ARR)” value [5, 15] was 0.290±0.03. The “annualized relapse rate (ARR)” value [5, 16] was 0.368±0.039, the “ARR reduced (improved) by” value ([5]; 10 SNPs and 2 clinical variables) was 72% and the “ARR reduced (improved) by” value ([5]; 11 SNPs and 2 clinical variables) was 72%. For the same substance, the “ARR reduced (improved) by” value ([5]; 11 SNPs without clinical variables) was 50%, the “annualized relapse rate (ARR)” value [5, 17] was 0.102±0.020 and the “annualized relapse rate (ARR)” value [5, 18] was 0.145±0.029. The “annualized relapse rate (ARR)” value [5, 19] was 0.102±0.020.
